Laboratory results: US8648116B2, “Derivatives of N-(arylamino) sulfonamides including polymorphs as inhibitors of MEK as well as compositions, methods of use and methods for preparing the same” (Ardea Biosciences, Inc., priority 2005, dated 2014)
Read-outs that look alike come from different tables or passages of the source.

Columns and labels:
human hepatocytes = experiment: Primary hepatocyte toxicity (AK release, ATP, 48 hr); assay type: cell-based; settings: 48 hr
Procedure: Plated human hepatocytes were obtained from CellzDirect and processed according to manufacturer's instructions.
(§1) After 48 hr, supernatant AK levels were determined using Toxilight, and cellular ATP levels were determined using CellTiterGlo. Full kill values were determined using 15 μM VRX-14686.

Colo205 cells = experiment: Anchorage-independent growth inhibition (MTS, 7 days); assay type: cell-based, human; settings: Homo sapiens, COLO 205, 168 h, Colo205 Colon, BRAF V600E, 0.15% agarose, read-out: Anchorage-Independent GI50 (nM ± sd)
Procedure: Wells of an “ultra low binding” plate (Corning, Acton Mass.) were filled with 60 μl of a 0.15% agarose solution in complete RPMI. Then, 60 μl complete RPMI containing 9000 Colo205 cells in 0.15% agarose was added per well. After 24 hr, 60 μl of a 3× drug solution in agarose free complete RPMI was added. After 7 days, 36 μl 6×MTS reagent (CellTiter 96 Aqueous, Promega, Madison, Wis.) was added per well. After 2 hr at 37° C., absorbance at 490 nm was determined on the M5 plate reader (Molecular Devices, Sunnyvale, Calif.).
Viability was determined by MTS assay.

[1] = system: orthotopic Hep3B2.1-7 human hepatic carcinoma; experiment: Growth response of orthotopic Hep3B tumors in nude mice; assay type: in vivo, BALB/c nu/nu mice
Procedure: Female BALB/c nu/nu mice (University of Adelaide, Waite Campus, SA, Australia), aged 10-14 weeks, with a body weight range: of 19.1-29.94 g (mean 22.95 g) were used for the study. The mice were divided into 6 Study groups (4 treatment groups and 2 control groups) as follows: • Number of Mice per Group: 10 in Groups 1 to 5 inclusive • 15 in ‘Take-Rate’ Control Group (Group 6)
Hep3B human hepatic carcinoma cells (Passage 2 from working stock VP-Stock 353) were cultured in RPMI1640 cell culture medium, which was supplemented with 10% FBS and penicillin-streptomycin (501 U/mL final concentration). The cells were harvested by trypsinisation, washed twice in HBSS and counted. The cells were then resuspended in HBSS:Matrigel (1:1, v/v) and adjusted to a final volume containing 1×10^8 cells/mL. Prior to inoculation, the incision site was liberally swabbed with alcohol and an incision made through the abdominal wall to expose the liver. The needle was introduced through the surface of the liver where 10 μL of cells (1×10^6 cells) were discharged. The needle was held in this position for approximately 30 seconds to allow the Matrigel® to polymerize in order to avoid leakage of tumor cells into the abdominal cavity.
Treatment commenced 14 days post-inoculation. On Day 7 of the study (21 days post-inoculation), all mice from the ‘Take-Rate’ control group were culled and the livers visually assessed for the presence of tumors.
A stock solution was prepared weekly and stored at 4° C. Dosing solutions were prepared on each day of administration. […] The compound was administered at doses of 2, 10 and 50 mg/kg.
Liver and tumor wet weight were measured when each were excised post-mortem on the termination day of the study. At the termination of the study, livers were excised from all mice in each study group and weighed. The number of visible tumors, if present, was counted. These tumors were removed from the liver and weighed.
A One-Way Analysis of Variance (ANOVA) (All Pairwise Multiple Comparison Procedure and Multiple Comparison versus Control Group) was performed on liver weight and tumor weight data at the end of the study. […] The same statistical analyses were performed on the data for the tumor-bearing mice in the study.

rat hepatocytes = experiment: Primary hepatocyte toxicity (AK release, ATP, 48 hr); assay type: cell-based; settings: 48 hr
Procedure: Cryopreserved rat hepatocytes were obtained from CellzDirect (Austin, Tex.) and plated on collagen coated 96-well plates according to manufacturer's instructions. Drug was added 4 hr after plating (final DMSO concentration 0.5%).
as §1

[2] = system: human A375 melanoma xenografts
A375 cells = experiment: Anchorage-independent growth inhibition (MTS, 7 days); assay type: cell-based, human; settings: Homo sapiens, A-375, 168 h, A375 Melanoma, BRAF V600E, 0.15% agarose, read-out: Anchorage-Independent GI50 (nM ± sd)
[3] = system: human renal proximal tubule epithelial cells (RPTEC); experiment: Renal cell toxicity (AK release, ATP, 48 hr); assay type: cell-based; settings: 48 hr
Procedure: Cryopreserved human renal proximal tubule epithelial cells (RPTEC) were obtained from Cambrex and were processed according to manufacturer's instructions. Cells were expanded for 4 days and then plated in 96-well plates at 50,000 cells/well for drug exposure.
as §1

[4] = Plasma concentrations in mice (Example 94F); assay type: in vivo, nu/nu mice; settings: A375-bearing nu/nu mice; for AUC / Cmax: female, nu/nu, mouse, plasma, po
A375 melanoma cells = experiment: Anchorage-dependent growth inhibition (CellTiterGlo/ATP, 48 hr); assay type: cell-based, human; settings: Homo sapiens, A-375; A375 Melanoma, BRAF V600E; 48 hr, CellTiterGlo; read-out: Anchorage-Dependent GI50 (nM ± sd)
A431 epidermoid cells = experiment: as above; settings: Homo sapiens, A-431, 48 h, read-out: Anchorage-Dependent GI50 (nM ± sd)
Procedure: (§2) Cells were maintained at 37° C., 5% CO2, and 100% humidity. Colo205 cells were maintained in RPMI supplemented with 10% fetal bovine serum, glutamine (2 mM), penicillin (100 U/ml), and streptomycin (100 μg/ml). For growth inhibition experiments, cells were plated in white 384-well microplates at 1000 cells/20 dwell. After 24 hr, 5 μl of a 5× drug stock solution was added. All drugs were initially prepared as 200× stocks in DMSO, such that final DMSO concentration was 0.5%. Cells were incubated for 48 hr at 37° C. and ATP levels were determined using CellTiterGlo (Promega, Madison, Wis.). […] Non-linear curve-fitting was performed using GraphPad Prism 4 (GraphPad Software, San Diego, Calif.).

[5] = system: Colo205 colon cancer cells; experiment: as above; settings: Homo sapiens, COLO 205, 48 h, read-out: Anchorage-Dependent GI50 (nM ± sd)
Procedure: as §2

[6] = Compound A 2 mg/kg p.o. once daily Day 0 to 18, tumor-bearing mice
[7] = Compound A 10 mg/kg p.o. once daily Day 0 to 18, tumor-bearing mice
[8] = Compound A 50 mg/kg p.o. once daily Day 0 to 18, tumor-bearing mice
[9] = Group 3: Compound A 50 mg/kg po qd × 14
[10] = Group 3: Compound A 50 mg/kg po qd × 14, n=9
[11] = Group 4: Compound A 25 mg/kg po bid × 14
[12] = Group 4: Compound A 25 mg/kg po bid × 14, n=9
[13] = Group 5: Compound A 25 mg/kg po qd × 14
[14] = Group 5: Compound A 25 mg/kg po qd × 14, n=9
[15] = Group 6: Compound A 12.5 mg/kg po bid × 14
[16] = Group 6: Compound A 12.5 mg/kg po bid × 14, n=9
[17] = oral, column 1, no head (b1249 order: 50 mg/kg QD)
[18] = oral, column 2, no head (b1249 order: 25 mg/kg BID)
[19] = oral, column 3, no head (b1249 order: second 50 mg/kg QD)
[20] = oral, column 4, no head (b1249 order: 12.5 mg/kg BID)
[21] = 50 mg/kg, oral, column 1, no head (b1249 order: 50 mg/kg QD)
[22] = 50 mg/kg, oral, column 3, no head (b1249 order: second 50 mg/kg QD)

For `COc1cc(F)c(F)c(Nc2ccc(I)cc2F)c1NS(=O)(=O)C1(C[C@H](O)CO)CC1` [Compound A], the “AK release (% Cell Survival) Hepatocytes Human” value (human hepatocytes; Compound A 1.1 (μM)) was 92%, the “ATP (% Cell Survival) Hepatocytes Human” value (human hepatocytes; Compound A 1.1 (μM)) was 108% and the “AK release (% Cell Survival) Hepatocytes Human” value (human hepatocytes; Compound A 3.3 (μM)) was 102%. For the same molecule, the “ATP (% Cell Survival) Hepatocytes Human” value (human hepatocytes; Compound A 3.3 (μM)) was 104%, the “AK release (% Cell Survival) Hepatocytes Human” value (human hepatocytes; Compound A 10.0 (μM)) was 112% and the “ATP (% Cell Survival) Hepatocytes Human” value (human hepatocytes; Compound A 10.0 (μM)) was 107%. The “AK release (% Cell Survival) Hepatocytes Human” value (human hepatocytes; Compound A 30.0 (μM)) was 109%, the “ATP (% Cell Survival) Hepatocytes Human” value (human hepatocytes; Compound A 30.0 (μM)) was 81% and the GI50 (Colo205 cells) was 33 ± 16 nM. The “No. of Mice with Tumors (out of 10)” value ([1]; Compound A 2 mg/kg p.o. once daily Day 0 to 18) was 6, the “Average Liver Weight” value [1, 6] was 2.775 g and the “Average Tumor Weight” value [1, 6] was 1.776 g. The “No. of Mice with Tumors (out of 10)” value ([1]; Compound A 10 mg/kg p.o. once daily Day 0 to 18) was 7, the “Average Liver Weight” value [1, 7] was 2.551 g and the “Average Tumor Weight” value [1, 7] was 1.407 g. For the same molecule, the “No. of Mice with Tumors (out of 10)” value ([1]; Compound A 50 mg/kg p.o. once daily Day 0 to 18) was 4, the “Average Liver Weight” value [1, 8] was 1.677 g and the “Average Tumor Weight” value [1, 8] was 0.624 g. The “AK release (% Cell Survival) Hepatocytes Rat” value (rat hepatocytes; Compound A 1.1 (μM)) was 96%, the “ATP (% Cell Survival) Hepatocytes Rat” value (rat hepatocytes; Compound A 1.1 (μM)) was 114% and the “AK release (% Cell Survival) Hepatocytes Rat” value (rat hepatocytes; Compound A 3.3 (μM)) was 97%. For the same molecule, the “ATP (% Cell Survival) Hepatocytes Rat” value (rat hepatocytes; Compound A 3.3 (μM)) was 87%, the “AK release (% Cell Survival) Hepatocytes Rat” value (rat hepatocytes; Compound A 10.0 (μM)) was 93% and the “ATP (% Cell Survival) Hepatocytes Rat” value (rat hepatocytes; Compound A 10.0 (μM)) was 72%. For the same molecule, the “AK release (% Cell Survival) Hepatocytes Rat” value (rat hepatocytes; Compound A 30.0 (μM)) was 91%, the “ATP (% Cell Survival) Hepatocytes Rat” value (rat hepatocytes; Compound A 30.0 (μM)) was 57% and the “% TGD” value [2, 9] was 21%. For the same molecule, the “Median TTE” value [2, 9] was 27.5 days, the “T − C” value [2, 9] was 4.7 days and the “Regressions CR” value [2, 10] was 0. For the same molecule, the “Regressions PR” value [2, 10] was 1, the “Regressions TFS” value [2, 10] was 0 and the “% TGD” value [2, 11] was 163%. For the same molecule, the “MTV (n) Day 60” value [2, 11] was 0 (4), the “Median TTE” value [2, 11] was 59.9 days and the “T − C” value [2, 11] was 37.1 days. The “Regressions CR” value [2, 12] was 5, the “Regressions PR” value [2, 12] was 4 and the “Regressions TFS” value [2, 12] was 4. For the same molecule, the “% TGD” value [2, 13] was 12%, the “Median TTE” value [2, 13] was 25.6 days and the “T − C” value [2, 13] was 2.8 days. The “Regressions CR” value [2, 14] was 0, the “Regressions PR” value [2, 14] was 0 and the “Regressions TFS” value [2, 14] was 0. The “% TGD” value [2, 15] was 21%, the “Median TTE” value [2, 15] was 27.5 days and the “T − C” value [2, 15] was 4.7 days. The “Regressions CR” value [2, 16] was 0, the “Regressions PR” value [2, 16] was 1 and the “Regressions TFS” value [2, 16] was 0. For the same molecule, the “Mean BW Nadir” value ([2]; mouse, in vivo, po, 25 mg/kg) was −0.6% Day 15, the GI50 (A375 cells) was 68 ± 34 nM and the “AK release (% Cell Survival) RPTEC Human” value ([3]; Compound A 1.1 (μM)) was 96%. The “ATP (% Cell Survival) RPTEC Human” value ([3]; Compound A 1.1 (μM)) was 94%, the “AK release (% Cell Survival) RPTEC Human” value ([3]; Compound A 3.3 (μM)) was 95% and the “ATP (% Cell Survival) RPTEC Human” value ([3]; Compound A 3.3 (μM)) was 91%. The “AK release (% Cell Survival) RPTEC Human” value ([3]; Compound A 10.0 (μM)) was 99%, the “ATP (% Cell Survival) RPTEC Human” value ([3]; Compound A 10.0 (μM)) was 85% and the “AK release (% Cell Survival) RPTEC Human” value ([3]; Compound A 30.0 (μM)) was 41%. The “ATP (% Cell Survival) RPTEC Human” value ([3]; Compound A 30.0 (μM)) was 34%, the “Cmin” value [4, 17] was 60 ng/mL and the “Cmin Free Fraction” value [4, 17] was 0.117 ng/mL. For the same molecule, the “Cmin” value [4, 18] was 1240 ng/mL, the “Cmin Free Fraction” value [4, 18] was 2.48 ng/mL and the “Cmin” value [4, 19] was 30 ng/mL. For the same molecule, the “Cmin Free Fraction” value [4, 19] was 0.059 ng/mL, the “Cmin” value [4, 20] was 490 ng/mL and the “Cmin Free Fraction” value [4, 20] was 0.986 ng/mL. For the same molecule, the AUC ([4]; 12.5 mg/kg) was 78000 ng·h/mL, the Cmax ([4]; 12.5 mg/kg) was 7800 ng/mL and the AUC ([4]; 25 mg/kg) was 117000 ng·h/mL. It also gave a Cmax ([4]; 25 mg/kg) of 10200 ng/mL, an AUC [4, 21] of 132000 ng·h/mL and a Cmax [4, 21] of 23800 ng/mL. For the same molecule, the AUC [4, 22] was 66500 ng·h/mL, the Cmax [4, 22] was 11900 ng/mL and the GI50 (A375 melanoma cells) was 67 ± 12 nM. For the same molecule, the GI50 (A431 epidermoid cells) was > 10000 nM and the GI50 [5] was 74 ± 45 nM.
